In brackets after ≈: the same amount, converted by molar mass. Where two headings read alike, the source gives them in different places.
How the values were obtained:
Format in all cases: cell-based
[1] = test system: Mycobacterium tuberculosis H 37 RV; assay: Minimum inhibiting concentration, M. tuberculosis H37RV; settings: Mycobacterium tuberculosis; M. tub. H37RV
Description: The minimum inhibiting concentration of the commercially available and inventive substances given in Table 2 was determined according to the known standard process ("Methods for sensitivity testing of bacterial infectious germs", DIN 58940, part 5).
The determination was carried out on the following bacterial cultures:
2. Mycobacterium tuberculosis H 37 RV, FIB 2-85 JS
For culturing the bacterial cultures use was made of nutrient substrates according to Gottsacker and Lowenstein Jensen and culture media according to Lockemann or Dubos-Davis (cf. "Detection processes for mycobacteria from test material, III, culture medium formulations for culturing tuberculosis bacteria", 1978, Publisher: Deutsches Zentralkomitee zur Bekampfung der Tuberculose, Poppenhusenstrasse 14c, 2000 Hamburg 60).
In each case 5×10^-3 to 5×10^-5 mg, based on the wet weight, of the mycobacterial strains were incubated in 2 ml of culture fluid (Lockemann +0.5 wt/vol. % bovine serum albumen fraction 5) at 31° C. with a graded concentration of the particular inhibitor (dilution series). The culture tubes were read off after 8 to 15 days, as a function of the bacterial strain.
The MIC is the inhibitor concentration in μMol/l at which no propagation of the sewn cells is observed.

[2] = test system: Mycobacterium smegmatis ATCC 607; assay: Minimum inhibiting concentration, M. smegmatis ATCC 607; settings: Mycolicibacterium smegmatis
Mycobacterium lufu = assay: Minimum inhibiting concentration, M. lufu L 209; settings: Mycobacterium lufu
[3] = test system: Mycobacterium marinum SN 1254; assay: Minimum inhibiting concentration, M. marinum SN1254
[4] = test system: Mycobacterium avium Patient Strain (Birk); assay: Minimum inhibiting concentration, M. avium Patient Strain (Birk); settings: Mycobacterium avium; M. avium Patient str.; read-out: Minimum inhibiting concentration
[5] = test system: Indochina W-2 (parasitic malaria strain); assay: Growth of malaria strain Indochina W-2; settings: for IC50: read-out: I50; for IC90: read-out: I90
From the text: (§1) Determination of the semimaximum inhibiting concentration (I50) of typical representatives of the inventive compounds for the growth of parasitic malaria strains:
(§2) The determination took place according to the standard process (cf. WHO determination process).
(§3) The process according to Example 35 was repeated with the difference that the semimaximum inhibiting concentration of combinations of the inventive compound PH 22 with (2), (3) inhibitors of dihydrofolic acid reductase, (4) inhibitors of folate synthase and dihydrofolic acid reductase and (5), (6) inhibitors of DNA-synthesis were determined.

[6] = test system: Sierra Leone D-6 (parasitic malaria strain); assay: Growth of malaria strain Sierra Leone D-6; settings: for IC50: read-out: I50; for IC90: read-out: I90
From the text: as §1, §2, §3

[7] = ATCC607, M. smegm. ATCC 607, read-out: Minimum inhibiting concentration
[8] = M. marin. SN1254, read-out: Minimum inhibiting concentration

Compound	MIC [1] [µM]	MIC [2, 7] [µM]	MIC (Mycobacterium lufu) [µM]	MIC [3, 8] [µM]	MIC [4] [µM]	IC50 [5] [µM]	IC90 [5] [µM]	IC50 [6] [µM]	IC90 [6] [µM]	MIC ([2]; ATCC607, read-out: Minimum inhibiting concentration) [µM]	MIC ([3]; SN1254, read-out: Minimum inhibiting concentration) [µM]
CC(=NNc1nncc2ccccc12)c1cc(N)ccn1 [PH 22-24, 2-acetyl-4-aminopyridine-1'-phthalazinylhydrazine]	4.5 (≈ 1.25 µg/mL)	4.5 (≈ 1.25 µg/mL)	2.2 (≈ 0.612 µg/mL)	18 (≈ 5.01 µg/mL)							
CC(=O)Nc1ccnc(C(C)=NNc2nncc3ccccc23)c1 [PH 22-20, 4-acetylamino-2-acetylpyridine-1'-phthalazinylhydrazine]	10.9 (≈ 3.49 µg/mL)	15.6 (≈ 5 µg/mL)	12.5 (≈ 4 µg/mL)	88 (≈ 28.2 µg/mL)							
CC(=O)Nc1ccnc(C=NNc2nncc3ccccc23)c1 [PH 22-18, 4-acetylaminopyridine-2-aldehyde-1'-phthalazinylhydrazone]	46 (≈ 14.1 µg/mL)	65 (≈ 19.9 µg/mL)	22.9 (≈ 7.01 µg/mL)	92 (≈ 28.2 µg/mL)							
C(=NNc1ccccn1)c1nccc2ccccc12 [PH 22-37, isoquinoline-1-aldehyde-2'-pyridyl hydrazone]	3 (≈ 0.745 µg/mL)	6 (≈ 1.49 µg/mL)	12.1 (≈ 3 µg/mL)	6 (≈ 1.49 µg/mL)							
Clc1ccc(NN=Cc2ccccn2)nc1 [PH 22-30, pyridine-2-aldehyde-5'-chloro-2'-pyridylhydrazone]	1.3 (≈ 0.302 µg/mL)		2.7 (≈ 0.628 µg/mL)	5.4 (≈ 1.26 µg/mL)	13 (≈ 3.02 µg/mL)						
Cc1ccc(C=NNc2nncc3ccccc23)nc1 [PH 22-16, 5-methyl-pyridine-2-aldehyde-1'-phthalazinylhydrazone]	1.4 (≈ 0.369 µg/mL)	5.7 (≈ 1.5 µg/mL)	4.8 (≈ 1.26 µg/mL)	76 (≈ 20 µg/mL)							
CC(O)CN(C)c1ccc(NN=Cc2ccccn2)nn1 (stereo not drawn) [PH 22-28, pyridine-2-aldehyde-6'-(N-methyl-N-2"-hydroxypropyl)-amino-3'-pyridazinylhydrazone]	140 (≈ 40.1 µg/mL)		35 (≈ 10 µg/mL)	70 (≈ 20 µg/mL)							
CCc1ccc(C=NNc2ccccn2)nc1 [PH 22-13, 5-ethyl-pyridine-2-aldehyde-2'-pyridylhydrazone]	22 (≈ 4.98 µg/mL)	22 (≈ 4.98 µg/mL)	53 (≈ 12 µg/mL)	44 (≈ 9.96 µg/mL)							
C(=NNc1nncc2ccccc12)c1ccc(OCc2ccccc2)cn1 [PH 22-6, 5-benzyloxypyridine-2-aldehyde-1'-phthalazinylhydrazone]	8.5 (≈ 3.02 µg/mL)	40 (≈ 14.2 µg/mL)	5.6 (≈ 1.99 µg/mL)	7 (≈ 2.49 µg/mL)	7 (≈ 2.49 µg/mL)						
Cc1cccc(NN=Cc2ccccn2)n1 [PH 22-31, pyridine-2-aldehyde-2'-(6'-methyl)-pyridylhydrazone]	1.8 (≈ 0.382 µg/mL)		3.5 (≈ 0.743 µg/mL)	8.3 (≈ 1.76 µg/mL)	57 (≈ 12.1 µg/mL)						
Clc1cccc(C=NNc2ccccn2)n1 [PH 22-11, 6-chloropyridine-2-aldehyde-2'-pyridylhydrazone]	86 (≈ 20 µg/mL)	56 (≈ 13 µg/mL)	43 (≈ 10 µg/mL)			8.9	23	13.1	25.7		
CC(=O)Nc1ccnc(C=NNc2ccccn2)c1 [PH 22-17, 4-acetylamino-pyridine-2-aldehyde-2'-pyridylhydrazone]	> 125		94 (≈ 24 µg/mL)			0.5	2.3	0.6	1.1	> 125	> 125
Cc1cccc(C=NNc2ccccn2)n1 [PH 22-10, 6-methyl pyridine-2-aldehyde-pyridylhydrazone]	47 (≈ 9.98 µg/mL)	33 (≈ 7 µg/mL)	8.3 (≈ 1.76 µg/mL)								
CN(N=Cc1ccccn1)c1cc(Cl)ncn1 [PH 22-36, pyridine-2-aldehyde-6'-chloro-4'-pyrimidyl-(N1-methyl)-hydrazone]	136 (≈ 33.7 µg/mL)		5.3 (≈ 1.31 µg/mL)	119 (≈ 29.5 µg/mL)							
Cc1ccnc(C=NNc2nncc3ccccc23)c1 [PH 22-8, 4-methyl-pyridine-2-aldehyde-1'-phthalazinylhydrazone]	18 (≈ 4.74 µg/mL)	44 (≈ 11.6 µg/mL)	31 (≈ 8.16 µg/mL)	22 (≈ 5.79 µg/mL)							
Cc1ccc(C=NNc2ccc3ccccc3n2)nc1 [PH 22-14, 5-methyl-pyridine-2-aldehyde-2'-quinolylhydrazone]	1.2 (≈ 0.315 µg/mL)	9.5 (≈ 2.49 µg/mL)	3.8 (≈ 0.997 µg/mL)	5.7 (≈ 1.5 µg/mL)							
CC(=NNc1ncnc2ccccc12)c1ccccn1 [PH 22-34, 2-acetylpyridine-4'-quinazolylhydrazone]	12 (≈ 3.16 µg/mL)		< 1	64 (≈ 16.9 µg/mL)							
Nc1ccnc(C=NNc2nncc3ccccc23)c1 [PH 22-23, 4-aminopyridine-2-aldehyde-1'-phthalazinylhydrazine]	13.3 (≈ 3.52 µg/mL)	13.3 (≈ 3.52 µg/mL)	26.5 (≈ 7 µg/mL)	38 (≈ 10 µg/mL)							
C(=NNc1nccc2ccccc12)c1ccccn1 [PH 22-27, pyridine-2-aldehyde-1'-isoquinolylhydrazone]	8.1 (≈ 2.01 µg/mL)	12.1 (≈ 3 µg/mL)	6 (≈ 1.49 µg/mL)	16.1 (≈ 4 µg/mL)							
CCc1ccc(C=NNc2cc(OC)ncn2)nc1 [PH 22-33, 5-ethylpyridine-2-aldehyde-6'-methoxy-4'-pyrimidylhydrazone]	2.4 (≈ 0.618 µg/mL)		1.5 (≈ 0.386 µg/mL)	4.9 (≈ 1.26 µg/mL)							
C(=NNc1nncc2ccccc12)c1ccccn1 [PH 22-1, pyridine-2-aldehyde-1'-phthalazinylhydrazone]	49 (≈ 12.2 µg/mL)	49 (≈ 12.2 µg/mL)	12.1 (≈ 3.02 µg/mL)								
CC(=NNc1nncc2ccccc12)c1ccccn1 [PH 22-3, 2-acetylpyridine-1'-phthalazinylhydrazone]	31 (≈ 8.16 µg/mL)	44 (≈ 11.6 µg/mL)	6.6 (≈ 1.74 µg/mL)	22 (≈ 5.79 µg/mL)	53 (≈ 14 µg/mL)						
Clc1cccc(NN=Cc2ccccn2)n1 [PH 22-29, pyridine-2-aldehyde-6'-chloro-2'-pyridylhydrazone]	1.6 (≈ 0.372 µg/mL)		3.2 (≈ 0.745 µg/mL)	6.5 (≈ 1.51 µg/mL)	60 (≈ 14 µg/mL)						
CC(=NNc1cc(Cl)ncn1)c1ccccn1 [PH 22-32]	6.1 (≈ 1.51 µg/mL)		1.3 (≈ 0.322 µg/mL)	28.3 (≈ 7.01 µg/mL)							
c1ccc(C(=NNc2nncc3ccccc23)c2ccccn2)cc1 [PH 22-22, 2-benzoylpyridine-1'-phthalazinylhydrazone]	18.5 (≈ 6.02 µg/mL)	12.3 (≈ 4 µg/mL)	2.3 (≈ 0.748 µg/mL)	10.8 (≈ 3.51 µg/mL)	86 (≈ 28 µg/mL)						
CCc1ccc(C=NNc2nncc3ccccc23)nc1 [PH 22-5, 5-ethylpyridine-2-aldehyde-1'-phthalazinylhydrazone]	16.6 (≈ 4.6 µg/mL)	67 (≈ 18.6 µg/mL)	14.5 (≈ 4.02 µg/mL)	10.4 (≈ 2.88 µg/mL)							
CC(=O)Nc1ccnc(C=NNc2ccc3ccccc3n2)c1 [PH 22-19, 4-acetylaminopyridine-2-aldehyde-2'-quinolylhydrazone]	11.5 (≈ 3.51 µg/mL)	9.8 (≈ 2.99 µg/mL)	32.9 (≈ 10 µg/mL)	11.5 (≈ 3.51 µg/mL)							

Source: patent US4997835A, “Substituted 2-acylpyridine-α-(N)-hetarlyhydrazones and medicaments containing the same” (priority 1987, dated 1991)
